Measurements published in the supplement of paper PMC10627819.

Experiments:
Experiment in all cases: fitness (endpoint OD595 vs no drug) (fraction); higher = more growth
B. subtilis 168 = tested on: B. subtilis 168
Procedure, shortened: (§1)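 Fitness expresses the optical density reached at the stationary-phase transition as a fraction of the robust mean of no-drug control wells. It is capped at 1. Measurements were OD595 every 30 min for 14 h at 37 °C after inoculation of 384-well plates at OD595 0.01 (30 µl, or 55 µl for S. pneumoniae), minus the first reading.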

S. aureus Newman = tested on: S. aureus Newman
Procedure, shortened: as §1

S. pneumoniae D39V = tested on: S. pneumoniae D39V
Procedure, shortened: as §1
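Also: OD595 on entry to stationary phase over no-drug wells; at most 1.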

O=C(O)[C@H]1/C(=C/CO)O[C@@H]2CC(=O)N21 [Clavulanic acid] + CN(C)c1cc(NC(=O)CNC(C)(C)C)c(O)c2c1C[C@H]1C[C@H]3[C@H](N(C)C)C(O)=C(C(N)=O)C(=O)[C@@]3(O)C(O)=C1C2=O [Tigecycline]
fitness
Conditions | partner 0.039 µg/mL | partner 0.078 µg/mL | partner 0.156 µg/mL | partner 0.325 µg/mL | partner 0.65 µg/mL | partner 1.3 µg/mL | partner 2.6 µg/mL
B. subtilis 168, first compound 1.5 µg/mL | 0.98 | 0.919 | 0.884 | – | – | – | –
B. subtilis 168, first compound 3 µg/mL | 0.888 | 0.899 | 0.889 | – | – | – | –
B. subtilis 168, first compound 6 µg/mL | 0.82 | 0.796 | 0.79 | – | – | – | –
S. pneumoniae D39V, first compound 0.5 µg/mL | – | – | – | ≥ 1 | 0.965 | 0.931 | 0.866
S. pneumoniae D39V, first compound 1 µg/mL | – | – | – | 0.908 | 0.889 | 0.877 | 0.814
S. pneumoniae D39V, first compound 2 µg/mL | – | – | – | 0.717 | 0.782 | 0.815 | 0.755

fitness, one replicate
Conditions | first compound 0.03125 µg/mL | first compound 0.0625 µg/mL | first compound 0.125 µg/mL | first compound 1.5 µg/mL | first compound 3 µg/mL | first compound 6 µg/mL
B. subtilis 168, partner 0.125 µg/mL | – | – | – | 0.956 | 0.952 | 0.814
B. subtilis 168, partner 0.25 µg/mL | – | – | – | 0.863 | 0.928 | 0.821
B. subtilis 168, partner 0.5 µg/mL | – | – | – | 0.866 | 0.865 | 0.765
S. aureus Newman, partner 0.039 µg/mL | 0.952 | 0.987 | 0.919 | – | – | –
S. aureus Newman, partner 0.078 µg/mL | 0.933 | 1 | 0.884 | – | – | –
S. aureus Newman, partner 0.156 µg/mL | 0.96 | 0.971 | 0.898 | – | – | –

O=C(O)[C@H]1/C(=C/CO)O[C@@H]2CC(=O)N21 [Clavulanic acid] + CN(N=O)C(=O)N[C@@H](C=O)[C@@H](O)[C@H](O)[C@H](O)CO [Streptozotocin]
fitness
Conditions | first compound 0.5 µg/mL | first compound 1 µg/mL | first compound 1.5 µg/mL | first compound 2 µg/mL | first compound 3 µg/mL | first compound 6 µg/mL
B. subtilis 168, partner 0.15 µg/mL | – | – | 0.914 | – | 0.861 | 0.779
B. subtilis 168, partner 0.3 µg/mL | – | – | 0.898 | – | 0.848 | 0.772
B. subtilis 168, partner 0.6 µg/mL | – | – | 0.911 | – | 0.929 | 0.75
S. pneumoniae D39V, partner 1.2 µg/mL | 0.937 | 0.882 | – | 0.784 | – | –
S. pneumoniae D39V, partner 2.4 µg/mL | 0.979 | 0.947 | – | 0.876 | – | –
S. pneumoniae D39V, partner 4.8 µg/mL | 0.944 | 0.864 | – | 0.747 | – | –

fitness, S. aureus Newman, one replicate
Conditions | first compound 0.03125 µg/mL | first compound 0.0625 µg/mL | first compound 0.125 µg/mL
partner 0.15 µg/mL | 0.937 | 0.977 | 0.923
partner 0.3 µg/mL | 0.91 | 0.911 | 0.865
partner 0.6 µg/mL | 0.667 | 0.761 | 0.655

O=C(O)[C@H]1/C(=C/CO)O[C@@H]2CC(=O)N21 [Clavulanic acid] + CN[C@@H]1[C@H](O)[C@H](NC)[C@H]2O[C@@]3(O)C(=O)C[C@@H](C)O[C@H]3O[C@@H]2[C@H]1O [Spectinomycin]
fitness
Conditions | first compound 0.5 µg/mL | first compound 1 µg/mL | first compound 1.5 µg/mL | first compound 2 µg/mL | first compound 3 µg/mL | first compound 6 µg/mL
B. subtilis 168, partner 2 µg/mL | – | – | 0.892 | – | 0.951 | 0.832
B. subtilis 168, partner 4 µg/mL | – | – | 0.929 | – | 0.868 | 0.755
B. subtilis 168, partner 8 µg/mL | – | – | 0.934 | – | 0.867 | 0.72
S. pneumoniae D39V, partner 4 µg/mL | 0.916 | 0.809 | – | 0.79 | – | –
S. pneumoniae D39V, partner 8 µg/mL | 0.852 | 0.845 | – | 0.749 | – | –
S. pneumoniae D39V, partner 16 µg/mL | 0.658 | 0.621 | – | 0.447 | – | –

fitness, S. aureus Newman, one replicate
Conditions | first compound 0.03125 µg/mL | first compound 0.0625 µg/mL | first compound 0.125 µg/mL
partner 4 µg/mL | 0.961 | 0.922 | 0.916
partner 8 µg/mL | 0.945 | 0.945 | 0.958
partner 16 µg/mL | 0.92 | 0.885 | 0.905

O=C(O)[C@H]1/C(=C/CO)O[C@@H]2CC(=O)N21 [Clavulanic acid] + CN[C@H](CC(C)C)C(=O)N[C@H]1C(=O)N[C@@H](CC(N)=O)C(=O)N[C@H]2C(=O)N[C@H]3C(=O)N[C@H](C(=O)N[C@H](C(=O)O)c4cc(O)cc(O)c4-c4cc3ccc4O)[C@H](O)c3ccc(c(Cl)c3)Oc3cc2cc(c3O[C@@H]2O[C@H](CO)[C@@H](O)[C@H](O)[C@H]2O[C@H]2C[C@](C)(N)[C@H](O)[C@H](C)O2)Oc2ccc(cc2Cl)[C@H]1O [Vancomycin]
fitness, S. aureus Newman, one replicate
Conditions | first compound 0.03125 µg/mL | first compound 0.0625 µg/mL | first compound 0.125 µg/mL
partner 0.1875 µg/mL | 0.974 | ≥ 1 | 0.936
partner 0.375 µg/mL | 0.975 | ≥ 1 | 0.923
partner 0.75 µg/mL | 0.974 | ≥ 1 | 0.981

fitness, S. pneumoniae D39V
Conditions | partner 0.03125 µg/mL | partner 0.0625 µg/mL | partner 0.125 µg/mL | partner 0.25 µg/mL | partner 0.5 µg/mL
first compound 0.5 µg/mL | 0.984 | 0.917 | 0.875 | 0.0377 | 0.0441
first compound 1 µg/mL | 0.907 | 0.889 | 0.868 | 0.189 | 0.179
first compound 2 µg/mL | 0.811 | 0.779 | 0.751 | 0.0611 | 0.078

O=C(O)[C@H]1/C(=C/CO)O[C@@H]2CC(=O)N21 [Clavulanic acid] + CO/N=C(\C(=O)N[C@@H]1C(=O)N2C(C(=O)[O-])=C(C[N+]3(C)CCCC3)CS[C@H]12)c1csc(N)n1 [Cefepime]
fitness, S. aureus Newman, one replicate
Conditions | first compound 0.03125 µg/mL | first compound 0.0625 µg/mL | first compound 0.125 µg/mL
partner 0.125 µg/mL | 0.965 | 0.94 | 0.881
partner 0.25 µg/mL | 0.943 | 0.914 | 0.884
partner 0.5 µg/mL | 0.946 | 0.871 | 0.869

fitness, S. pneumoniae D39V
Conditions | partner 0.007 µg/mL | partner 0.0078 µg/mL | partner 0.014 µg/mL | partner 0.0155 µg/mL | partner 0.028 µg/mL | partner 0.031 µg/mL
first compound 0.5 µg/mL | 0.996 | 0.997 | 0.997 | 0.957 | 0.885 | 0.501
first compound 1 µg/mL | 0.991 | 0.955 | 0.988 | 0.91 | 0.817 | 0.456
first compound 2 µg/mL | 0.902 | 0.778 | 0.904 | 0.681 | 0.633 | 0.199

O=C(O)[C@H]1/C(=C/CO)O[C@@H]2CC(=O)N21 [Clavulanic acid] + CO[C@@]12[C@H](COC(N)=O)C3=C(C(=O)C(C)=C(N)C3=O)N1C[C@@H]1N[C@@H]12 [Mitomycin C]
fitness, S. aureus Newman, one replicate
Conditions | first compound 0.03125 µg/mL | first compound 0.0625 µg/mL | first compound 0.125 µg/mL
partner 0.0156 µg/mL | 0.757 | 0.748 | 0.721
partner 0.0312 µg/mL | 0.549 | 0.568 | 0.601
partner 0.0625 µg/mL | 0.48 | 0.495 | 0.51

fitness, S. pneumoniae D39V
Conditions | partner 0.001075 µg/mL | partner 0.00215 µg/mL | partner 0.004 µg/mL | partner 0.0043 µg/mL | partner 0.008 µg/mL
first compound 0.5 µg/mL | 0.951 | 0.885 | 0.642 | 0.772 | 0.324
first compound 1 µg/mL | 0.896 | 0.873 | 0.586 | 0.766 | 0.369
first compound 2 µg/mL | 0.838 | 0.791 | 0.385 | 0.696 | 0.201

O=C(O)[C@H]1/C(=C/CO)O[C@@H]2CC(=O)N21 [Clavulanic acid] + Cn1nnc(-c2ccc(-c3ccc(N4C[C@H](CO)OC4=O)cc3F)cn2)n1 [Tedizolid]
fitness, S. aureus Newman, one replicate
Conditions | first compound 0.03125 µg/mL | first compound 0.0625 µg/mL | first compound 0.125 µg/mL
partner 0.0625 µg/mL | 0.827 | 0.837 | 0.868
partner 0.125 µg/mL | 0.498 | 0.509 | 0.523
partner 0.25 µg/mL | 0.0634 | 0.0552 | 0.0639

fitness, S. pneumoniae D39V
Conditions | partner 0.03125 µg/mL | partner 0.0625 µg/mL | partner 0.125 µg/mL | partner 0.25 µg/mL | partner 0.5 µg/mL
first compound 0.5 µg/mL | 0.953 | 0.943 | 0.693 | 0.261 | 0.0809
first compound 1 µg/mL | 0.887 | 0.938 | 0.673 | 0.371 | 0.227
first compound 2 µg/mL | 0.855 | 0.901 | 0.581 | 0.262 | 0.0776

O=C(O)[C@H]1/C(=C/CO)O[C@@H]2CC(=O)N21 [Clavulanic acid] + N[C@@H]1CONC1=O [Cycloserine D]
fitness, B. subtilis 168
Conditions | first compound 1.5 µg/mL | first compound 3 µg/mL | first compound 6 µg/mL
partner 0.125 µg/mL | 0.903 | 0.909 | 0.792
partner 0.25 µg/mL | 0.957 | 0.861 | 0.801
partner 0.5 µg/mL | 0.946 | 0.915 | 0.832

fitness, S. aureus Newman, one replicate
Conditions | first compound 0.03125 µg/mL | first compound 0.0625 µg/mL | first compound 0.125 µg/mL
partner 0.375 µg/mL | 0.902 | 0.954 | 0.885
partner 0.75 µg/mL | 0.884 | 0.942 | 0.888
partner 1.5 µg/mL | 0.899 | 0.858 | 0.897

CNC(C)C1CCC(N)C(OC2C(N)CC(N)C(OC3OCC(C)(O)C(NC)C3O)C2O)O1 (stereo unspecified) [Gentamicin] + CO[C@@]12[C@H](COC(N)=O)C3=C(C(=O)C(C)=C(N)C3=O)N1C[C@@H]1N[C@@H]12 [Mitomycin C]
fitness, S. aureus Newman, one replicate, main component drawn
Conditions | first compound 0.375 µg/mL | first compound 0.75 µg/mL | first compound 1.5 µg/mL
partner 0.0156 µg/mL | 0.755 | 0.779 | 0.774
partner 0.0312 µg/mL | 0.762 | 0.725 | 0.707
partner 0.0625 µg/mL | 0.602 | 0.603 | 0.607

fitness, main component drawn
Conditions | partner 0.001075 µg/mL | partner 0.002 µg/mL | partner 0.00215 µg/mL | partner 0.004 µg/mL | partner 0.0043 µg/mL | partner 0.008 µg/mL | partner 0.0156 µg/mL | partner 0.0312 µg/mL | partner 0.0625 µg/mL
S. aureus Newman, first compound 0.5 µg/mL | – | – | – | – | – | – | 0.762 | 0.667 | 0.558
S. aureus Newman, first compound 1 µg/mL | – | – | – | – | – | – | 0.797 | 0.698 | 0.601
S. aureus Newman, first compound 2 µg/mL | – | – | – | – | – | – | 0.808 | 0.732 | 0.585
S. pneumoniae D39V, first compound 2 µg/mL | 0.975 | 0.787 | 0.969 | 0.685 | 0.844 | 0.395 | – | – | –
S. pneumoniae D39V, first compound 4 µg/mL | 0.94 | 0.729 | 0.915 | 0.602 | 0.807 | 0.369 | – | – | –
S. pneumoniae D39V, first compound 8 µg/mL | 0.946 | 0.715 | 0.929 | 0.608 | 0.827 | 0.346 | – | – | –
